This is an account of results in patent US7785900B1, “Glutathione beads and GST fusion proteins” (STC.UNM, priority 2006, dated 2010).

One assay has as its target Bcl-2 family proteins. The following applies: Oltersdorf et al., 2005; read-out: binding constant obtained earlier; cited from earlier work.
Assay [1] relates to GST-Bcl-2 fusion proteins. In words: FPA competition assay with FITC-Bid BH3 peptide. The following applies: 100 nM GST-Bcl-2 fusion proteins, 5 nM FITC-Bid BH3. Format: binding, human. As to the method: 100 nM of GST-Bcl-2 fusion proteins were incubated with various concentrations of EGCG or control compound ECG (“C”) for 2 min in PBS buffer in 50 μL. Then, 5 nM FITC-conjugated-Bid BH3 peptide was added, bringing final volume to 100 μL and final DMSO concentration to 1%. Fluorescence polarization was measured after 20 minutes.
C1.3 FPA competition assay for Bcl-2-binding compounds. The green tea compound […] has been reported to bind Bcl-2 and Bcl-XL (Leone et al., 2003). The ability of EGCG to compete with fluorochrome-labeled BH3 peptides was confirmed by FPA. […] This compound therefore can serve as a positive control when performing high throughput screens of any compound library, including the NIH library.

The target in assay [2] is T1, GST-Rab7 (Homo sapiens, UniProt P51149).
T1 construct: made in house; host or cells: bacteria
In words: Competition of nucleotides with Bodipy-FL-GTP for bead-bound GST-Rab7. The format is binding. The settings on record: 10 nM GST-Rab7 preloaded, 1 μM GTP*. The text has this:
The signal to background levels are compatible with homogeneous analysis of the binding of the fluorescent GTP analog. Moreover, the assay is conservative with respect to protein, using <1 pmol of protein per well.

Another assay concerns the target GST-GFP (Schistosoma japonicum, UniProt P08515). The assay is described as follows: biochemical.
The test system of a further assay is Ras superfamily members. In words: Multiplex Bodipy-FL-GTP binding and GTP competition. As to the method: The Bodipy-FL-GTP binding assay established using wild-type GST-Rab7 was adapted for multiplex, high-throughput assays by Sklar and colleagues.
384-well microplates are configured with 64 control wells (columns 1 and 2 unblocked, and columns 23 and 24 with 1 mM GTP), leaving 320 wells to which test compounds are added as per the Roadmap compound plates supplied. Compounds from the molecular library and GTP controls are added in 5 μl, Bodipy-FL-GTP is added in 5 μl, and GST-G protein-coated beads are added in 5 μl. […] The bead sets are coated by mixing each “address level of red fluorescence” bead type individually in the presence of ˜60 nM GST-small G protein for two hours with 5,000 beads per microliter. The sets are then combined together, centrifuged, and resuspended just before addition to the assay plate. The beads are kept in suspension during the competitive assay using rotation at 22° C. for 2 hours, then the plate is read at room temperature at a cytometer.

In assay [3] the target is T1, GST-Rab7. In words: Bodipy-FL-GTP binding to and dissociation from bead-bound GST-Rab7. As to the method:
A fluorescent GTP-binding assay capable of being monitored by flow cytometry was developed and optimized using GST-Rab7 protein and Bodipy-FL-GTP (GTP*). […] Values are usually expressed as 1000 fluorescence equivalents of fluorescein in free solution (kMESF).
The binding of purified GST-Rab7 to bGSH was measured by using increasing concentrations (1.0-316.0 nM) of GST-Rab7 with a fixed amount of bGSH (−10,000 beads/reaction and excess (1.0 µM) GTP*).
In order to measure the rate of GTP* dissociation from bead-bound Rab7, bGSH were pre-loaded with 100 nM GST-Rab7 and incubated with 1 µM GTP* at 37° C. for 2 h. Dissociation of GTP* from the beads was then measured at 37° C. both for simple dilution with buffer as well as upon addition of 1000-fold higher (1 mM) non-fluorescent GTP (FIG. 6). The calculated half-time was 72.7s. The rate of dissociation in the presence of 1 mM unlabeled GTP alone was 9.6×10^−3s^−1.

What is called EC50 is the concentration that produces a half-maximal response. Read a low EC50 as higher potency in that assay. For orientation: Kd means the equilibrium constant for the complex coming apart. A higher Kd goes with a looser complex.

Some results are limits rather than exact numbers.

T1 sequence (P51149 whole entry): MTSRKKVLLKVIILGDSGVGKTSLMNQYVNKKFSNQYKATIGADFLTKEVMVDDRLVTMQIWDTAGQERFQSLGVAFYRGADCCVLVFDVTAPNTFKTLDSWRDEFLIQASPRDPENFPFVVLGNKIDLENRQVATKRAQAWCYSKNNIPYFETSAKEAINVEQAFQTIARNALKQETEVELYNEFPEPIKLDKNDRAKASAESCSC
Sequence of GST-GFP (P08515 2-218, added parts left off): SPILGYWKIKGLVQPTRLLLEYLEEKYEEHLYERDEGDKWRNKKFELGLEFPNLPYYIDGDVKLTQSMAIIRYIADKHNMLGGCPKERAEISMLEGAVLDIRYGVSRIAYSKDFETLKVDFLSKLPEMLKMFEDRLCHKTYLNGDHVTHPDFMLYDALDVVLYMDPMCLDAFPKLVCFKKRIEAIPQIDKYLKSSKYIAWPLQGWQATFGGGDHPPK
Procedure for GST-GFP: The standard assay for monitoring the concentration of free glutathione was performed in ten microliters of HPSM buffer with 0.01% dodecyl maltoside added to reduce nonspecific binding. Typically, two microliters of 50 nM GST-GFP and two microliters of bead suspension containing 10,000 beads (as determined using a hemacytometer) were added to six microliters of buffer, with or without some competitor, giving 10 nM GST-GFP in the suspension. The ten microliter assays were gently shaken in wells of a 96 V-shaped well plate (Corning Costar #2897) on a vortex mixer in a cold room for two hours.

As to `CN(C)CC[C@H](CSc1ccccc1)Nc1ccc(S(=O)(=O)NC(=O)c2ccc(N3CCN(Cc4ccccc4-c4ccc(Cl)cc4)CC3)cc2)cc1[N+](=O)[O-]` [ABT737], on Bcl-2 family proteins, the Ki was under 1 nM.

Take `O=C(O[C@@H]1Cc2c(O)cc(O)cc2O[C@@H]1c1cc(O)c(O)c(O)c1)c1cc(O)c(O)c(O)c1` [ECGC, epigallecatechin]: the “competition with FITC-Bid BH3 peptide” value in assay [1] is given as “binds to all six anti-apoptotic members of the Bcl-2-family, to variable extents”.

`Nc1nc2c(ncn2[C@@H]2O[C@H](COP(=O)(O)OP(=O)(O)O)[C@@H](O)[C@H]2O)c(=O)[nH]1` [GDP] showed an EC50 on GST-Rab7 [2] of 560 nM. This lies in the sub-micromolar range.

On GST-GFP, `N[C@@H](CCC(=O)N[C@@H](CS)C(=O)NCC(=O)O)C(=O)O` [GSH, γ-glu-cys-gly] yielded an EC50 of 39000 nM and a Ki of 35000 nM.

With `Cc1cc(C)n2c1C=C1C=CC(CCC(=O)NCCNC(=O)OC3C(COP(=O)(O)OP(=O)(O)OP(=O)(O)O)OC(n4cnc5c(=O)[nH]c(N)nc54)C3O)=[N+]1[B-]2(F)F` (stereo not drawn) [GTP*], the specific binding affinities result in the assay with Ras superfamily members (fourplex) is “within a factor of two of each other”. On Ras superfamily members (sixplex, 25 or 50 nM Bodipy-FL-GTP), the EC50s result is given as “within the same order of magnitude”. This molecule also had a rate of dissociation at GST-Rab7 [3] (1 mM GTP alone, 37° C.) of 0.0096 s⁻¹. Besides, the Kd at GST-Rab7 [3] (GTP* binding to GST-Rab7) came out at 94 nM.
